Experimental data taken from PubChem BioAssay (NCI).
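1) Cells in 96-well plates. 2) Compound, 48 h, 5 concentrations. 3) Linear interpolation between surrounding doses. 4) Unreached endpoint = highest concentration. TGI: concentration producing complete growth inhibition.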

Legend:
Assay in all cases: NCI tumour cell line growth inhibition, 48 h
[1] = system: DMS 114 small cell lung
[2] = system: HOP-18 NSCLC
[3] = system: KM20L2 colon
[4] = system: LXFL 529 NSCLC
[5] = system: P388 leukemia
[6] = system: P388/ADR leukemia
[7] = system: SN12K1 renal

Work on `CC1=C(Cl)C=CP(=O)(Oc2ccccc2)C1` (stereo not given) yielded a TGI [1] of 90.9 µM, a TGI [2] of 89.6 µM and a TGI [3] greater than 100 µM. It also gave a TGI [4] of 28.7 µM.
In the case of `Cc1ccc(NC(=O)CC2Sc3ccccc3NC2=O)cc1C` (stereo not given), the TGI [1] is reported as greater than 100 µM, the TGI [2] is reported as greater than 100 µM and the TGI [3] is reported as greater than 100 µM. It also gave a TGI [4] greater than 100 µM.
In the case of `COc1ccc2cc1Oc1ccc(cc1)C[C@H]1c3cc(c(OC)cc3CCN1C)Oc1c(O)c(OC)cc3c1[C@H](C2)N(C)CC3`, the TGI [1] is reported as 49.7 µM, the TGI [2] is reported as 139 µM and the TGI [3] is reported as 4.27 µM. The TGI [5] was 19.8 µM, the TGI [6] was 109 µM and the TGI [7] was 39.2 µM.
For `COc1ccc(/C=c2\sc3n(c2=O)CCN=3)cc1`, the TGI [2] was greater than 100 µM, the TGI [3] was greater than 100 µM and the TGI [4] was greater than 100 µM.
`Nc1nc(SCCC/C=C/I)nc2c1ncn2C1OC(COP(=O)(O)O)C(O)C1O` (stereo not given) showed a TGI [1] greater than 100 µM, a TGI [3] greater than 100 µM and a TGI [4] greater than 100 µM.
For `COC(=O)[C@@H](O)[C@](O)(CCC(C)C)C(=O)O[C@@H]1C(OC)=C[C@]23CCCN2CCc2cc4c(cc2[C@H]13)OCO4`, the TGI [1] was 2.2 µM, the TGI [2] was 7.81 µM and the TGI [3] was 9.49 µM. For the same compound, the TGI [5] was 1.16 µM, the TGI [6] was 11 µM and the TGI [7] was 5.89 µM.
`CCCCCCCC/C=C\CCCCCCCCCCCC(=O)O` gave a TGI [2] greater than 125 µM, a TGI [3] of 122 µM and a TGI [5] of 51.6 µM. It also gave a TGI [6] of 36.3 µM and a TGI [7] of 52.4 µM.
Work on `N#C/C(=C1/Sc2c(nc[nH]c2=O)N1c1ccccc1)c1nc2ccccc2[nH]1` yielded a TGI [1] greater than 100 µM, a TGI [3] greater than 100 µM and a TGI [4] greater than 100 µM.
`Nc1c(S(=O)(=O)O)cc2cc(S(=O)(=O)O)ccc2c1N=Nc1ccc(-c2ccc(N=Nc3c(N)c(S(=O)(=O)O)cc4cc(S(=O)(=O)O)ccc34)c(S(=O)(=O)O)c2)cc1` was tested, and the TGI [1] was greater than 100 µM, the TGI [2] was greater than 100 µM and the TGI [3] was greater than 100 µM. The TGI [5] was greater than 100 µM, the TGI [6] was greater than 100 µM and the TGI [7] was greater than 100 µM.
